{"source": "patent US20090036507A1", "about": "“BIS (CYANOPHENYL) METHYL-TRIAZOLE FOR USE IN PREVENTION OF BREAST CANCER” (priority 2001, published 2009)", "key": {"[1]": {"tested_on": "aromatase transgenic mice", "settings": "5 μg/mouse/daily, previous studies; cited from earlier work"}, "[2]": {"tested_on": "estrogen receptor (ER), progesterone receptor (PR), cyclin D1 and proliferating cell nuclear antigen (PCNA)", "assay": "Western blot of ER, PR, cyclin D1 and PCNA protein levels in mammary tissues", "format": "in vivo, mice", "settings": "5 μg", "procedure": "(§1) Aged (about 16-20 weeks old) virgin aromatase transgenic females were used to investigate the effect of the aromatase inhibitor, COMPOUND I, as a chemopreventive agent against the preneoplastic and neoplastic changes induced in mammary glands of these mice. In this study, age-matched transgenic females were divided into four groups, one group (n=10) served as control group, the other groups received daily s.c. injection of COMPOUND I and three different doses; 0.25, 05, 1.0 μg COMPOUND I per animal in 100 μl of 0.3% hydroxy propyl cellulose (in phospate buffered saline). Control animals were given s.c. injection of vehicle. COMPOUND I was a gift from Drs. Ajay Bhatnagar and Dean Evans of Novartis Pharma (Basel, Switzerland). At the end of the 6-week treatment, mammary glands were removed and one gland each was used for histological analysis. All other glands were pooled then used for biochemical analysis as described below. Along with the mammary glands, uterus and ovaries was collected for biochemical and histological analyses.\n(§2) To isolate proteins from mammary gland and uterine tissue of both control and COMPOUND I-treated aromatase animals, the tissues were homogenized in lysis buffer. Equal amounts (60 ug) of protein from each sample was separated on a denaturing polyacrylamide gel and transferred to a nylon membrane. […]"}, "[3]": {"tested_on": "aromatase transgenic mice", "assay": "Effect on uterus and ovary histo-morphological features / normal endocrinological functions", "format": "in vivo", "procedure": "The skin containing the mammary fat pads was fixed in 10% neutral buffered formalin for at least 24 h. The mammary glands were then dissected free from skin and processed for histological examinations (D. Medina, Preneoplastic lesions in mouse mammary tumorigenesis, Methods Cancer Res. 7 (1973) 3-53. 514). Routine section of mammary tissues, uterus and ovary were prepared after fixation by embedding in paraf.n, sectioning at 5 μM, and staining with H&E. To immunolocalize aromatase expression, 5 μM thick sections of aromatase and nontransgenic mammary gland tissue were used. After deparaffination and rehydration in xylene and ethanol, nonspecific sites were blocked by incubating with 1% normal goat serum in 0.05M Tris-HCl buffer. After decanting the reagents, the sections were covered with rabbit polyclonal antibody to rat aromatase synthetic peptide in 1:100 dilution (aromatase antibody was obtained from Dr. Evan Simpson, University of Texas Southwestern Medical Center, Dallas, Tex.; currently at Prince Henry's Institute, Clayton, Vic., Australia). The samples were incubated overnight at 4° C. in a humidied chamber. After three washings with 0.05M Tris-HCl buffer, the slides were incubated with alkaline phosphate conjugated secondary antibody for 30 min at room temperature and washings were repeated and sections were incubated with 1% fast red/naphthol AS phospate solution for 5 min. Sections were washed again and cover slipped and staining pattern was observed using light microscope.\nAged (about 16-20 weeks old) virgin aromatase transgenic females were used to investigate the effect of the aromatase inhibitor, COMPOUND I, as a chemopreventive agent against the preneoplastic and neoplastic changes induced in mammary glands of these mice. In this study, age-matched transgenic females were divided into four groups, one group (n=10) served as control group, the other groups received daily s.c. injection of COMPOUND I and three different doses; 0.25, 05, 1.0 μg COMPOUND I per animal in 100 μl of 0.3% hydroxy propyl cellulose (in phospate buffered saline). […]"}, "[4]": {"tested_on": "follicle stimulating hormone", "assay": "Serum FSH levels (double antibody radioimmunoassay)", "format": "in vivo, mice", "description": "as §1, with “[…]; […]” for “other groups received daily s.c. injection of COMPOUND I and three different doses; 0.25, 05, 1.0 μg COMPOUND I per animal in 100 μl of 0.3% hydroxy”\nBlood from both control and COMPOUND I-treated groups was collected by cardiac puncture directly before harvesting tissues. Serum concentrations of estradiol were measured by double antibody radioimmunoassay using commercially available reagents (Diagnostic Products Corp., Los Angeles, Calif.). […] FSH levels were measured using a standard double antibody radioimmunoassay. […] Differences in mean estradiol or FSH levels were compared, and significance was determined using paired Student's t-test."}, "lactoferrin, ER, and PR": {"tested_on": "lactoferrin, ER, and PR", "assay": "Western blot of lactoferrin, ER and PR protein levels in uterus tissue", "format": "in vivo, mice", "settings": "1.0 μg per day per animal", "procedure": "as §1, §2"}, "estradiol": {"tested_on": "estradiol", "assay": "Serum estradiol levels (double antibody radioimmunoassay)", "format": "in vivo, mice", "settings": "for circulating estrogen (estradiol) level: control 12.5 pg/ml, no significant difference", "procedure": "as §1\nBlood from both control and COMPOUND I-treated groups was collected by cardiac puncture directly before harvesting tissues. Serum concentrations of estradiol were measured by double antibody radioimmunoassay using commercially available reagents (Diagnostic Products Corp., Los Angeles, Calif.). […] Assaying increasing volumes of serum from 50 to 200 μl produced a displacement line parallel to the standard curve. Intra-assay and inter assay coefficients of variation averaged <10.0 and 6.7%, respectively. FSH levels were measured using a standard double antibody radioimmunoassay. Purified FSH obtained from NIH hormone resource was used as a standard. Differences in mean estradiol or FSH levels were compared, and significance was determined using paired Student's t-test."}}}
{"compound": "N#Cc1ccc(C(c2ccc(C#N)cc2)n2cncn2)cc1", "note": "[COMPOUND I]", "values": [{"measurement": "effect on normal endocrinological functions", "setting": "[1]", "result": "affected some normal endocrinological functions"}, {"measurement": "level of PCNA, reduction", "setting": "[2]", "result": 50, "unit": "%"}, {"measurement": "effect on histo-morphological features of the uterus and ovary", "setting": "[3]; 0.25 μg per day per animal", "result": "no effect"}, {"measurement": "effect on histo-morphological features of the uterus and ovary", "setting": "[3]; 0.5 μg per day per animal", "result": "no effect"}, {"measurement": "effect on histo-morphological features of the uterus and ovary", "setting": "[3]; 1 μg per day per animal", "result": "no effect"}, {"measurement": "circulating FSH level", "setting": "[4]; 0.5 μg, no significant difference to control", "result": 200, "unit": "ng/mL"}, {"measurement": "circulating FSH level", "setting": "[4]; 5.0 μg, difference to control very significant (paired Student's t-test)", "result": 480, "unit": "ng/mL"}, {"measurement": "decrease in expression of the uterine marker lactoferrin vs control", "setting": "lactoferrin, ER, and PR", "result": 1.8, "unit": "fold"}, {"measurement": "circulating estrogen (estradiol) level", "setting": "estradiol; 0.25 μg per day per animal", "result": 12.1, "unit": "pg/mL"}, {"measurement": "circulating estrogen (estradiol) level", "setting": "estradiol; 0.5 μg per day per animal", "result": 12.5, "unit": "pg/mL"}, {"measurement": "circulating levels of estradiol", "setting": "estradiol; dose of 0.5 μg per day per animal as printed in last sentence of b103", "result": 2, "unit": "pg/mL"}]}
